Source: PMC7285070, “Quercetin Is a Flavonoid Breast Cancer Resistance Protein Inhibitor with an Impact on the Oral Pharmacokinetics of Sulfasalazine in Rats” (Pharmaceutics, 2020)
Where “and” joins values, the source holds several entries; their conditions need not be identical. Equal values may be shown once. Read-outs that look alike come from different tables or passages of the source. Each block holds one compound with its values, some of them ahead of it.

Columns and labels:
human BCRP [1] = target: T1, human BCRP (Homo sapiens, UniProt Q9UNQ0); details: read-out: Km value for prazosin; BCRP-mediated transport; cited from earlier work
T1 sequence (Q9UNQ0 1-655): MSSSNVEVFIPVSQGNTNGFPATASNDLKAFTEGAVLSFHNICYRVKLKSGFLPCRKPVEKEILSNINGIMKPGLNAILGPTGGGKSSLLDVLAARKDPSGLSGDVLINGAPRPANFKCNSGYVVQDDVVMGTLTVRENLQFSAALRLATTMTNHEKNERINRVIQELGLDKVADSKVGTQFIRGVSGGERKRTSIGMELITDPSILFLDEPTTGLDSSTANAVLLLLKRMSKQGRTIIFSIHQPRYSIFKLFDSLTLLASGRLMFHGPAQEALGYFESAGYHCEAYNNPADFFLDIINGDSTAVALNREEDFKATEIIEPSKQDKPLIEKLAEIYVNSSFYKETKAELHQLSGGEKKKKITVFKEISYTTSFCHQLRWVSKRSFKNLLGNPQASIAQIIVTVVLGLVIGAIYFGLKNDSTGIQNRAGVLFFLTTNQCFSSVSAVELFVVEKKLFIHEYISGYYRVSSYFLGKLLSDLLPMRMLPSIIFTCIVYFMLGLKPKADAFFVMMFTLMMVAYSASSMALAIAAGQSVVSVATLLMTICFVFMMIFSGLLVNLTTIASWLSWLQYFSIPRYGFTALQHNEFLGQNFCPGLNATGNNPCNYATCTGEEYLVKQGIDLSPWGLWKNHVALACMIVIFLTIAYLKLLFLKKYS

HeLa cells [2] = experiment: FACS cellular accumulation of mitoxantrone (flow cytometry); assay type: cell-based, human; details: for percentage of cells with a significant uptake of MX, higher than at 2 h of treatment with MX alone: 1 μM MX alone
Description: The cellular accumulation of quercetin was measured by FACSCalibur flow cytometry (Becton Dickinson, San Jose, CA, USA). For FACScan analysis, 2 × 10^5 HeLa cells/well were seeded into 6-well cell culture plates on the day before the experiment. On the following day, cells were treated with vehicle or quercetin and 1 μM MX. A time course experiment was conducted on HeLa cells following treatment with quercetin (1 and 100 μM) for 2, 4, and 6 h. After treatment, the cells were harvested by trypsinization and transferred to a fluorescence-activated cell sorting (FACS) tube, pelleted by centrifugation (1500 rpm, 5 min), and then resuspended in 200 μL of PBS. Flow cytometry analysis was performed using red fluorescence. A minimum of 10,000 cells were acquired per sample.

HeLa cells [3] = experiment: Cytotoxicity assay (CCK-8) of mitoxantrone with or without BCRP inhibitor; assay type: cell-based, human; details: for IC50: 24 h, CCK-8
Description: Dojindo Molecular Technologies, Kumamoto, Japan) following the manufacturer’s instructions. HeLa cells (at a density of 1 × 10^4 cells per well) were seeded and cultured overnight in 96-well plates. […] The absorbance was measured at a wavelength of 450 nm using a microplate reader (BioTeK, Highland Park, WI, USA).

BCRP [4] = tested on: BCRP; parameters: method as in PMID 21354800; details: MCF-7/MX cells; read-out: IC50, Hoechst 33342 accumulation; cited from earlier work
human BCRP [5] = target: T1, human BCRP; experiment: Bi-directional transport of prazosin in MDCKII/BCRP cells; assay type: cell-based; parameters: expressed in transfected cells; host or cells: MDCKII (Madin-Darby canine kidney II) cells
Description: At the end of the incubation, aliquots (300 μL for the apical chamber and 500 μL for the basolateral chamber) of the incubation mixture were collected from the donor and receiver chambers and subjected to LC-MS/MS assays. […] Briefly, an aliquot (50 μL) of a sample was vortex-mixed with an acetonitrile solution containing glipizide (300 ng/mL, internal standard); this was followed by centrifugation (16,100 × g for 5 min at 4 °C). An aliquot (5 μL) of the supernatant was directly injected into the LC-MS/MS system. […] For the internal standard glipizide, the transition m/z 445.[…]/z 320.9 was used. […] The efflux ratio (ER) was calculated by dividing the B-to-A apparent permeability coefficient (Papp, B-to-A) by the A-to-B apparent permeability coefficient (Papp, A-to-B). In the inhibition studies, the percentage of the control efflux ratio (%ER) was also calculated by dividing the value for ER in the presence of the inhibitor by that in the absence of the inhibitor (i.e., in the control).

BCRP [6] = tested on: BCRP; parameters: method as in PMID 21354800; details: MDCKII/BCRP cells; read-out: IC50, Hoechst 33342 accumulation; cited from earlier work
[7] = parameters: method as in PMID 15948033; details: 10 mg/kg oral administration to rats; cited from earlier work
mouse BCRP = tested on: mouse BCRP; parameters: method as in PMID 15608138; details: cited from earlier work
[8] = parameters: method as in PMID 15608138; details: rats or P-gp-knockout mice; cited from earlier work
human BCRP [9] = target: T1, human BCRP; parameters: expressed in transfected cells; host or cells: MDCKII (Madin-Darby canine kidney II) cells; method as in PMID 15608138; details: cited from earlier work
[10] = parameters: method as in PMID 22711747; details: BCRP-knockout rats, oral; cited from earlier work
in vivo = experiment: in vivo; parameters: species or system rats; details: rat
Description: To determine whether quercetin affects the intestinal efflux mediated by BCRP, we divided the male rats into two groups: A sulfasalazine (a substrate of BCRP) control group and a quercetin pretreatment plus sulfasalazine group (n = 4, each). Considering the similar expression levels of intestinal BCRP between male and female rats, male rats were used in this study. Briefly, overnight fasted male SD rats were anesthetized by intramuscular administration of 50 mg/kg tiletamine HCl/zolazepam HCl (Zoletil®) (Vibrac, TX, USA) and 10 mg/kg xylazine HCl (Rompun®, Bayer, Puteaux, France). While the rats were anesthetized, the femoral artery (for blood sampling) and vein (for supplementing body fluids) were catheterized using polyethylene tubing (PE 50; Clay Adams, Parsippany, NJ, USA). Upon recovery from anesthesia (i.e., after 4 h), quercetin was administered by oral gavage at 10 mg/kg (or 0 mg/kg in the case of the sulfasalazine control group; DMSO/polyethylene glycol 400/saline [1:4:5 (v/v/v)]). The pretreatment dose of quercetin was determined based on the compound solubility in the dosing vehicle and the likely daily dose of human dietary supplement. […] Immediately after each blood collection, an identical volume of saline was intravenously provided to the animal to compensate for fluid loss. To prevent blood clotting during blood collection, the cannula was filled with 25 IU/mL heparinized saline. The plasma fraction was separated from the blood samples by centrifugation (16,100 × g for 5 min at 4 °C) and stored at -80 °C until the LC-MS/MS assay. […] Briefly, an aliquot (50 μL) of a sample was vortex-mixed with an acetonitrile solution containing glipizide (300 ng/mL, internal standard); this was followed by centrifugation (16,100 × g for 5 min at 4 °C). An aliquot (5 μL) of the supernatant was directly injected into the LC-MS/MS system. […] For the internal standard glipizide, the transition m/z 445.[…]/z 320.9 was used. […] Standard non-compartmental pharmacokinetic analysis was carried out using WinNonlin Professional 5.0.1 software (Pharsight, Cary, NC, USA) to calculate the pharmacokinetic parameters, including the peak concentration (Cmax), time of the peak concentration (tmax), elimination half-life (t1/2), area under the plasma concentration-time curve from time zero to the last sampling point, 8 h (AUC8h), and elimination clearance (CL/F).

SMILES: COc1cc2nc(N3CCN(C(=O)c4ccco4)CC3)nc(N)c2cc1OC [prazosin, Prazosin]
- Km (human BCRP [1]): 128 µM

SMILES: O=C1c2c(O)ccc(O)c2C(=O)c2c(NCCNCCO)ccc(NCCNCCO)c21 [mitoxantrone]
- percentage of cells with a significant uptake of MX, higher than at 2 h of treatment with MX alone (HeLa cells [2]; 4 h): 17.2%
- percentage of cells with a significant uptake of MX, higher than at 2 h of treatment with MX alone (HeLa cells [2]; 6 h): 27.1%
- cellular uptake of MX, higher than at 2 h of treatment with MX alone (HeLa cells [2]; 1 μM MX with 1 μM quercetin, 4 h): 30.2%
- cellular uptake of MX, higher than at 2 h of treatment with MX alone (HeLa cells [2]; 1 μM MX with 1 μM quercetin, 6 h): 35.9%
- cellular uptake of MX, higher than at 2 h of treatment with MX alone (HeLa cells [2]; 1 μM MX with 100 μM quercetin, 4 h): 45.3%
- cellular uptake of MX, higher than at 2 h of treatment with MX alone (HeLa cells [2]; 1 μM MX with 100 μM quercetin, 6 h): 67.4%
- IC50 (HeLa cells [3]; Homo sapiens, in the presence of Ko143 (1 μM)): 0.62 µM
- IC50 (HeLa cells [3]; Homo sapiens, HeLa, mitoxantrone alone): 5.83 µM
- IC50 (HeLa cells [3]; Homo sapiens, HeLa, with 1 μM quercetin): 1.13 µM
- IC50 (HeLa cells [3]; Homo sapiens, HeLa, with 100 μM quercetin): 0.478 µM
- IC50 of mitoxantrone as percentage of the control value (mitoxantrone alone) (HeLa cells [3]; with 1 μM quercetin): 19.3%
- IC50 of mitoxantrone as percentage of the control value (mitoxantrone alone) (HeLa cells [3]; with 100 μM quercetin): 8.2% and 8.23%
- IC50 (HeLa cells [3]; with 100 μM quercetin): 0.48 µM

- IC50 (human BCRP [5]): 4.22 µM
- Ki (human BCRP [5]): 3.91 µM
SMILES: O=c1c(O)c(-c2ccc(O)c(O)c2)oc2cc(O)cc(O)c12 [quercetin, Quercetin]
- IC50 (BCRP [4]): 7.6 µM
- IC50 (BCRP [6]): 6.9 µM
- Cmax [7]: 210 ng/mL
- oral bioavailability [7]: 5.3%

SMILES: O=c1cc(-c2ccccc2)oc2cc(O)cc(O)c12 [chrysin]
- inhibition of mouse BCRP (mouse BCRP): weak inhibitors
- effect of coadministered flavonoid on the pharmacokinetics of topotecan [8]: no significant effects
- inhibition of human BCRP (human BCRP [9]): potent inhibitors

SMILES: O=c1cc(-c2ccccc2)oc2c1ccc1ccccc12 [7,8-benzoflavone]
- inhibition of mouse BCRP (mouse BCRP): weak inhibitors
- effect of coadministered flavonoid on the pharmacokinetics of topotecan [8]: no significant effects
- inhibition of human BCRP (human BCRP [9]): potent inhibitors

SMILES: COc1ccc2c3c([nH]c2c1)[C@H](CC(C)C)N1C(=O)[C@H](CCC(=O)OC(C)(C)C)NC(=O)[C@@H]1C3 [Ko143]
- internalization of MX when co-administered with inhibitor (HeLa cells [2]; 1 μM Ko143 with MX): considerably high number of cells that internalized MX

- AUC8h (in vivo; male, SD, po, 2 mg/kg): 44500 ± 11800 ng·min/mL
- CL/F (in vivo; male, SD, po, 2 mg/kg): 33.2 ± 10.2 mL/min/kg
- Cmax (in vivo; male, SD, po, 2 mg/kg): 179 ± 23.0 ng/mL
- t1/2 (in vivo; male, SD, po, 2 mg/kg): 4.03 ± 1.34 h
- tmax (in vivo; male, SD, po, 2 mg/kg): 0.375 ± 0.145 h
- AUC(0-t) (in vivo; male, SD, po, 2 mg/kg, AUC8h): 428 ng·h/mL
- CL/F (in vivo; male, SD, po, 2 mg/kg, CL/F): 52.5 ± 33.5 mL/min/kg
- Cmax (in vivo; male, SD, po, 2 mg/kg, Cmax): 122 ± 23.2 ng/mL
- half-life (in vivo; male, SD, po, 2 mg/kg, t1/2): 6.38 ± 1.85 h
- tmax (in vivo; male, SD, po, 2 mg/kg, tmax): 0.5 h
- change in the elimination half-life (t1/2) of sulfasalazine, quercetin pretreatment vs control (in vivo): no significant change
SMILES: O=C(O)c1cc(/N=N/c2ccc(S(=O)(=O)Nc3ccccn3)cc2)ccc1O [sulfasalazine]
- increase in absorption (AUC8h, Cmax) of sulfasalazine in knockout rats [10]: approximately 20 fold
